# Results as given in patent US10105426B2, “Immunostimulatory combinations” (TRUSTEES OF DARTMOUTH COLLEGE, priority 2002, dated 2018).
# What was measured:
# Type in all cases: in vivo, C57BL6 mice
# [1] = test system: ovalbumin-specific CD8^+ T cells; experiment: Expansion of ovalbumin-specific CD8+ T cells after i.v. immunization with ovalbumin peptide (Example 1, MHC tetramer flow cytometry of spleen cells); conditions: 100 μg ovalbumin peptide + 100 μg 1C10 anti-CD40 antibody + 200 μg IRM1 i.v., day 5, combination vs either agonist alone
# Method: Unless otherwise indicated, mice used in the following examples are C57BL6 mice, available from Charles River Laboratories, Inc., Wilmington, Mass.
# MHC tetrameric reagent was prepared using a eukaryotic (Baculovirus) expression system as follows/described in Kedl et al., JEM 192(8):1105-1113 (2000).
# 2-5 Mice were immunized intravenously with (A) 100 μg ovalbumin peptide, (B) 100 μg ovalbumin peptide+100 μg anti-CD40 antibody (1C10), (C) 100 μg ovalbumin peptide+200 μg IRM1, or (D) 100 μg ovalbumin peptide+100 μg 1C10 anti-CD40 antibody+200 μg IRM1. At five days after the immunizations, the spleens were removed from the mice and homogenized. The homogenized cell suspension was stained with a major histocompatibility complex (MHC) tetrameric reagent for detecting ovalbumin-specific T cells (Kedl et al., JEM 192(8):1105-1113 (2000)), a CD8 stain (BD Biosciences Pharmingen, San Diego, Calif.), and a CD44 stain (BD Biosciences Pharmingen, San Diego, Calif.). When subjected to flow cytometry, ovalbumin-specific CD8^+ T cells are shown in the upper right quadrant of the dot plots shown in FIG. 1.
# [2] = test system: melanoma B16ova tumor cells; experiment: Tumor growth after melanoma B16ova challenge, immunization with ovalbumin peptide (Example 6); conditions: B16ova intradermal day 0; immunization day 7 with 100 μg ovalbumin peptide + 200 μg IRM + 100 μg 1C10; measured day 21
# Method: Mice were challenged intradermally on day 0 with 1×10^5 melanoma B16ova tumor cells in PBS (Kedl et al. PNAS 98(19):10811-10816). On day 7, the mice were immunized with either (A) 100 μg ovalbumin peptide, (B) 100 μg ovalbumin peptide+200 μg IRM1, or (C) 100 μg ovalbumin peptide+200 μg IRM1+100 μg 1C10 anti-CD40 antibody. On day 21, the mice were sacrificed and the tumors were measured in two dimensions by caliper.
# Mice also were challenged as described above, and immunized as described above except that IRM2 was substituted for IRM1.
# [3] = test system: CD8^+ T cells; experiment: CD8+ T cell expansion with IRM1 and different TNF/R agonists (Example 9); conditions: 1 mg ovalbumin + 200 μg IRM1 + 200 μg TNF/R agonist; spleen, day 6
# Method: Mice were immunized on day 0 with 1 mg ovalbumin, 200 μg IRM1, and either 200 μg CD40 ligand (FGK4.5), 200 μg 4-1BB ligand (anti-mouse 4-1BB antibody, clone 17B3, eBioscience, San Diego, Calif.), or no TNF/R agonist (control).
# [4] = test system: melanoma B16ova tumor cells; experiment: Tumor growth after melanoma B16ova challenge, immunization with tumor lysate (Example 7); conditions: B16ova day 0; immunization day 7 with 1×10^6 CE tumor lysate ± 200 μg IRM1 ± 100 μg FGK4.5; measured days 14 and 20
# Method: Mice were challenged with tumor on day 0 as in example 6. 5 mice each were immunized on days 7 with 1×10^6 cell equivalents (CE) (A) tumor lysate, (B) 1×10^6 CE tumor lysate+200 μg IRM1, (C) 1×10^6 CE tumor lysate+100 μg FGK4.5 anti-CD40 antibody, or (D)1×10^6 CE tumor lysate+200 μg IRM1+100 μg FGK4.5 anti-CD40 antibody. Tumor sizes were measured on the mice by caliper on days 14 and 20.
# [5] = test system: CD8^+ memory T cells; experiment: Generation and re-activation of CD8+ memory T cells (Example 4); conditions: day 0: 100 μg ovalbumin peptide + 200 μg IRM1 + 100 μg 1C10 i.v.; challenge day 28 with peptide or peptide + 200 μg IRM1; analysis day 33
# Method: Mice were immunized intravenously on day 0 with 100 μg ovalbumin peptide+200 μg IRM 1+100 μg of 1C10 anti-CD40 antibody. On day 28, the mice were either (A) left unchallenged, (B) challenged intravenously with 100 μg ovalbumin peptide, or (C) challenged intravenously with 100 μg ovalbumin peptide+200 μg IRM1. On day 33, the mice were sacrificed, the spleens removed and spleen cells homogenized. The homogenized cells were stained and analyzed as described in Example 1.
# [6] = test system: TRP2-ΔV-specific CD8^+ T cells; experiment: Expansion of TRP2-ΔV-specific CD8+ T cells after i.v. immunization (Example 3); conditions: 100 μg FGK4.5 + 200 μg IRM1 + 100 μg TRP2-ΔV peptide i.v.; spleen, day 5
# Method: Mice were immunized intravenously with 100 μg FGK4.5 anti-CD40 antibody+200 μg IRM1 and either (A) no peptide, (B) 100 μg ovalbumin peptide, or (C) 100 μg TRP2-ΔV peptide. At five days after the immunizations, the spleens were removed from the mice and homogenized. The homogenized cell suspension was stained as in Example 1, except that the MHC tetramer reagent was prepared for detecting TRP2-ΔV-specific T cells. When subjected to flow cytometry, TRP2-ΔV-specific CD8^+ T cells are shown in the upper right quadrant of the dot plots shown in FIG. 3. The numbers in the upper right quadrant indicate the percentage of cells in that quadrant.
# [7] = test system: ovalbumin-specific CD8^+ T cells; experiment: Expansion kinetics of ovalbumin-specific CD8+ T cells after i.p. immunization with whole ovalbumin (Example 2); conditions: 5 mg ovalbumin + 50 μg FGK4.5 anti-CD40 antibody + 220 μg IRM1 i.p.; spleen, days 4-12
# Method: Mice were intraperitoneally injected with 5 mg ovalbumin (Sigma Chemical Co., St. Louis, Mo.), 50 μg FGK4.5 anti-CD40 antibody, and 220 μg IRM1. Mice were sacrificed on each of days four, five, six, nine, and twelve. The spleens were removed from the sacrificed mice and homogenized. The homogenized cell suspensions were stained and analyzed as described in Example 1. When subjected to flow cytometry, ovalbumin-specific CD8^+ T cells (top) and ovalbumin-specific CD8^+/CD44+ T cells (bottom) were identified and are shown in the upper right quadrant of each dot plot. The numbers in the upper right quadrant indicate the percentage of cells in that quadrant.
# [8] = test system: CD8^+ T cells; experiment: CD8+ T cell expansion with CD40 agonist and different IRM compounds (Example 8); conditions: 500 μg ovalbumin + 50 μg FGK4.5 + IRM (500 μg IRM3, 200 μg IRM4, 800 μg IRM5, 800 μg IRM2) i.p.; spleen, day 6; n=3
# Method: Mice were intraperitoneally injected on day 0 with 500 μg ovalbumin, 50 μg CD40 agonist (FGK4.5), and either 500 μg IRM3, 200 μg IRM4, 800 μg IRM5, 800 μg IRM2, or no IRM (control).
smiles,measurement,setting,value
"Cc1nc2c(N)nc3ccccc3c2n1CC(C)(C)O [IRM1, 4-amino-α,α,2-trimethyl-1H-imidazo[4,5-c]quinolin-1-ethanol]",Expansion of the ovalbumin-specific CD8^+ T cell population,[1],greater than the expansion of the ovalbumin-specific CD8^+ T cell populations after stimulation with either the anti-CD40 antibody or IRM alone
same,Tumor growth (tumor size by caliper),[2],slower tumor growth than immunization with IRM alone
same,Expansion of CD8^+ T cells,[3],Synergistic expansion of CD8^+ T cells
same,Tumor growth (tumor size by caliper),[4],slower tumor growth than immunization with IRM alone or CD40 agonist alone
same,Generation and re-activation of CD8^+ memory T cells,[5],generates a pool of long-lived CD8^+ memory T cells that can be reactivated by treatment with IRM and the antigen
same,Expansion of antigen-specific (TRP2-ΔV) CD8^+ T cells,[6],synergistic expansion of antigen-specific CD8^+ T cells
same,CD8^+ T cell expansion (ovalbumin-specific),[7],synergistic effect on CD8^+ T cell expansion
"COCCc1nc2c(N)nc3ccccc3c2n1CCOCCN(C)C(=O)N1CCOCC1 [IRM2, N-(2-{2-[4-amino-2-(2-methoxyethyl)-1H-imidazo[4,5-c]quinolin-1-yl]ethoxy}ethyl)-N-methylmorpholine-4-carboxamide]",Expansion of CD8^+ T cells,[8],Synergistic expansion of CD8^+ T cells
"CCOCc1nc2c(N)nc3ccccc3c2n1CC(C)(C)N [IRM3, 1-(2-amino-2-methylpropyl)-2-(ethoxymethyl)-1H-imidazo[4,5-c]quinolin-4-amine]",Expansion of CD8^+ T cells,[8],Synergistic expansion of CD8^+ T cells
"CCc1nc2c(N)nc3ccccc3c2n1CCCCNS(C)(=O)=O [IRM4, N-[4-(4-amino-2-ethyl-1H-imidazo[4,5-c]quinolin-1-yl)butyl]-methanesulfonamide]",Expansion of CD8^+ T cells,[8],Synergistic expansion of CD8^+ T cells
"CCCc1nc2c(N)nc3ccccc3c2n1CCCCNS(C)(=O)=O [IRM5, N-[4-(4-amino-2-propyl-1H-imidazo[4,5-c]quinolin-1-yl)butyl]-methanesulfonamide]",Expansion of CD8^+ T cells,[8],Synergistic expansion of CD8^+ T cells
